Assay results taken from article PMC9986876, “Prediction of Antileishmanial Compounds: General Model, Preparation, and Evaluation of 2-Acylpyrrole Derivatives” (Journal of Chemical Information and Modeling, 2022).

Key:
L. major promastigotes = conditions: in vitro; cited from earlier work
[1] = system: L. donovani (MHOM/IN/80/DD8) promastigotes; assay: In vitro promastigote susceptibility assay (resazurin); format: cell-based; conditions: for IC50: Leishmania donovani, L. donovani promastigotes, 48 h at 26 °C, triplicate, N/A = not active at 100 μg/mL; for SI (selectivity index, SI = CC50/IC50): CC50 J774 / IC50 L. donovani promastigotes
Experimental: (§1) The following species of Leishmania were used: L. donovani (MHOM/IN/80/DD8) was purchased (ATCC, USA) and L. amazonensis (MHOM/Br/79/Maria) was kindly provided by Prof. Alfredo Toraño (Instituto de Salud Carlos III, Madrid). Promastigotes were cultured in Schneider’s insect medium supplemented with 10% heat-inactivated fetal bovine serum (FBS) and 1000 U/L of penicillin plus 100 mg/L of streptomycin in 25 mL culture flasks at 26 °C. […] New samples of the compounds have been prepared according to the protocol described above, and subsequently solutions of the chemical compound to be assayed have been dissolved in DMSO at 50 mg/mL. […] Growth control and signal-to-noise control were also included. The final solvent (DMSO) concentrations never exceeded 0.5% (v/v) warranting no effect on parasite proliferation or morphology. After 48 h at 26 °C, 20 μL of a 2.5 mM resazurin solution was added to each well and the plates were returned to the incubator for another 3 h. […] Growth inhibition (%) was calculated by 100 – [(RFU treated wells – RFU signal-to-noise)/(RFU untreated – RFU signal-to-noise) × 100]. All tests were carried out in triplicate. Miltefosine (Sigma-Merck, Madrid, Spain) was used as the reference drug and was evaluated under the same conditions. […] The selectivity index (SI) was calculated as the ratio between cytotoxicity (CC50) and activity against parasites (IC50).

[2] = system: L. amazonensis (MHOM/Br/79/Maria) promastigotes; assay: as above; format: cell-based; conditions: for SI (selectivity index, SI = CC50/IC50): CC50 J774 / IC50 L. amazonensis promastigotes; for IC50: Leishmania amazonensis; for IC50 / IC50 ± SD: L. amazonensis promastigotes, 48 h at 26 °C, triplicate, N/A = not active at 100 μg/mL
Experimental: as §1

[3] = Cytotoxicity assay on macrophages (resazurin); format: cell-based, BALB/c mice; conditions: mouse, J774 macrophages, values marked e correspond to 100 μg/mL, the higher dose tested
Experimental: The assay was carried out as previously described.[30] J774 macrophages cell lines were seeded (5 × 10^4 cells/well) in 96-well flat-bottom microplates with 100 μL of RPMI 1640 medium. The cells were allowed to attach for 24 h at 37 °C and 5% CO2, and the medium was replaced by different concentrations of the compounds in 200 μL of medium and exposed for another 24 h. Growth controls and signal-to-noise were also included. Afterward, a volume of 20 μL of 2.5 mM resazurin solution was added, and plates were returned to the incubator for another 3 h to evaluate cell viability. The reduction of resazurin was determined by fluorometry as in the promastigote assay. Each concentration was assayed three times.

[4] = system: L. amazonensis amastigotes; assay: In vitro intracellular amastigote susceptibility assay in J774 macrophages; format: cell-based; conditions: Leishmania amazonensis; L. amazonensis intracellular amastigotes in J774, 48 h; N/A = not active at 100 μg/mL
Experimental: The following species of Leishmania were used: L. donovani (MHOM/IN/80/DD8) was purchased (ATCC, USA) and L. amazonensis (MHOM/Br/79/Maria) was kindly provided by Prof. Alfredo Toraño (Instituto de Salud Carlos III, Madrid). Promastigotes were cultured in Schneider’s insect medium supplemented with 10% heat-inactivated fetal bovine serum (FBS) and 1000 U/L of penicillin plus 100 mg/L of streptomycin in 25 mL culture flasks at 26 °C. The assay was carried out as previously described.[29] Briefly, 5 × 10^4 J774 macrophages and stationary promastigotes in a 1:5 ratio were seeded in each well of a microtiter plate, suspended in 200 μL of culture medium, and incubated for 24 h at 33 °C in a 5% CO2 chamber. After this first incubation, the temperature was increased up to 37 °C for another 24 h. Thereafter, cells were washed several times in culture medium by centrifugation at 1.500g for 5 min in order to remove free non-internalized promastigotes. Finally, the supernatant was replaced by 200 μL/well of culture medium containing 2-fold serial dilutions of the test compounds as in promastigotes assay. Growth control and signal-to-noise were also included. Following incubation for 48 h at 37 °C and 5% CO2, the culture medium was replaced by 200 μL/well of the lysis solution (RPMI-1640 with 0.048% HEPES and 0.01% SDS) and incubated at room temperature for 20 min. Thereafter, the plates were centrifuged at 3.500g for 5 min and the lysis solution was replaced by 200 μL/well of Schneider’s insect medium. The culture plates were then incubated at 26 °C for another 4 days to allow transformation of viable amastigotes into promastigotes and proliferation. Afterward, 20 μL/well of 2.5 mM resazurin was added and incubated for another 3 h. Finally, fluorescence emission was measured and IC50 was estimated as described above. All tests were carried out in triplicate. Miltefosine (Sigma-Merck, Madrid, Spain) was used as the reference drug and was evaluated under the same conditions. The IC50 and SI were calculated as in the previous section.

[5] = macrophages J774, 24 h exposure, Table 2

SMILES	IC50 [1]	IC50 [2]	IC50 ± SD [2]	IC50 [4] [µM]	IC50 (L. major promastigotes) [µM]	SI (selectivity index, SI = CC50/IC50) [2]	CC50 at 24 h [3, 5] [µM]	SI (selectivity index, SI = CC50/IC50) [1]	CC50 at 24 h ([3]; macrophages J774, Table 3 (amastigote assay table)) [µM]
Cc1ccc2ncc(/C=C/C(=O)c3cc[nH]c3)cc2c1 [4a]					1.29				
COc1ccc2ncc(/C=C/C(=O)c3cc[nH]c3)cc2c1 [4b]					1.18				
O=C(c1ccccc1)c1cccn1-c1ncccn1 [5aa]	> 100 µg/mL	260 ± 40.7 µM				>1.55	> 401		
CC(C)(C)c1ccc(C(=O)c2cccn2-c2ncccn2)cc1 [5ac]	58.5 ± 7.04 µM	32.9 ± 0.74 µM				>2.77	91 ± 6.55	>1.55	
O=C(c1ccc(F)cc1)c1cccn1-c1ncccn1 [5ad]	> 100 µg/mL	> 100 µg/mL	inactive				270 ± 26.3		
O=C(c1ccc(Cl)cc1)c1cccn1-c1ncccn1 [5ae]	190 ± 6.76 µM	117 ± 10.9 µM				>3.01	> 352	>1.86	
N#Cc1ccc(C(=O)c2cccn2-c2ncccn2)cc1 [5ag]	> 100 µg/mL	> 100 µg/mL					> 365		
O=C(c1ccc([N+](=O)[O-])cc1)c1cccn1-c1ncccn1 [5ah]	> 100 µg/mL	> 100 µg/mL					> 340		
O=C(c1ccc(C(F)(F)F)cc1)c1cccn1-c1ncccn1 [5ai]	42.8 ± 0.61 µM	48 ± 1.61 µM				>3.13	150 ± 49.4	>3.51	
COc1cc(OC)cc(C(=O)c2cccn2-c2ncccn2)c1 [5aj]	211 ± 32.8 µM	32.5 ± 0.64 µM				>2.71	88.3 ± 3.36	>0.42	
COc1cc(C(=O)c2cccn2-c2ncccn2)cc(OC)c1OC [5ak]	> 100 µg/mL	> 100 µg/mL	inactive				87.3 ± 7.37		
COc1ccc(C(=O)c2cccn2-c2ncccn2)c(OC)c1 [5al]	> 100 µg/mL	> 100 µg/mL					224 ± 46.9		
O=C(c1cc(C(F)(F)F)cc(C(F)(F)F)c1)c1cccn1-c1ncccn1 [5am]	199 ± 25.4 µM	57.34 ± 0.25 µM				>4.53	> 260	>1.31	
O=C(c1ccc2ccccc2c1)c1cccn1-c1ncccn1 [5an]	58.5 ± 3.34 µM	36.1 ± 1.23 µM				>3.12	113 ± 39.2	>1.93	
COc1cc(OC)cc(C(=O)c2cccn2-c2ncccc2C)c1 [5bj]	43.5 ± 0.59 µM	71.1 ± 7.81 µM				>1.53	108 ± 5.76		
COc1cc(C(=O)c2cccn2-c2ncccc2C)cc(OC)c1OC [5bk]	> 100 µg/mL	> 100 µg/mL	inactive				284		
Cc1cccnc1-n1cccc1C(=O)c1cccc(OCc2ccccc2)c1 [5bp]	184 ± 8.67 µM	208 ± 23.6 µM				>1.31	> 357	>1.47	
Cc1cccnc1-n1cccc1C(=O)c1ccn(C(C)(C)C)c1 [5bq]	92.8 ± 7.68 µM	209 ± 4.69 µM				>1.56	> 325		
CN1CCC(c2cc(-c3ccncc3)c(-c3ccc(F)cc3)[nH]2)CC1 [compound 1]					2.1				
CN1CCC(c2cc(-c3ccc(F)cc3)c(-c3ccncc3)[nH]2)CC1 [compound 2]					0.6				
CCCCCCCCCCCCCCCCOP(=O)([O-])OCC[N+](C)(C)C [miltefosine, reference compound]	0.24 ± 0.02 µM	30.7 ± 8.8 µM		47.6 ± 7.04			55.4 ± 4.19		136 ± 10.2

More lines, main results first:

IC50 [1]	IC50 [2]	IC50 ± SD [2]	IC50 [4] [µM]	SMILES	IC50 (L. major promastigotes) [µM]	SI (selectivity index, SI = CC50/IC50) [2]	CC50 at 24 h [3, 5] [µM]	SI (selectivity index, SI = CC50/IC50) [1]	CC50 at 24 h ([3]; macrophages J774, Table 3 (amastigote assay table)) [µM]
> 100 µg/mL	> 100 µg/mL			Cc1ccc(C(=O)c2cccn2-c2ncccn2)cc1 [5ab]			> 381		
> 100 µg/mL	153 ± 21.6 µM			Cc1cccnc1-n1cccc1C(=O)c1ccccc1 [5ba]		>2.50	> 381		
120 ± 15 µM	149 ± 3.84 µM			Cc1ccc(C(=O)c2cccn2-c2ncccc2C)cc1 [5bb]		>2.43	> 362	>3.02	
7.78 ± 0.27 µM	16.9 ± 0.73 µM			Cc1cccnc1-n1cccc1C(=O)c1ccc(F)cc1 [5bd]			137 ± 36.4	>23.15	
20.7 ± 0.98 µM	51.5 ± 4.72 µM			Cc1cccnc1-n1cccc1C(=O)c1ccc(Cl)cc1 [5be]		>2.89	149 ± 19.3	>7.19	
19.9 ± 1.47 µM	38.1 ± 0.85 µM			Cc1cccnc1-n1cccc1C(=O)c1ccc(Br)cc1 [5bf]		>3.14	120 ± 37.4	>6.01	
315 ± 60.8 µM	192 ± 12 µM			Cc1cccnc1-n1cccc1C(=O)c1ccc(C#N)cc1 [5bg]		>1.81	> 348	>1.10	
173 ± 60.3 µM	224 ± 14.7 µM			COc1ccc(C(=O)c2cccn2-c2ncccc2C)cc1 [5bo]		>1.53	> 342	>1.98	
> 100 µg/mL	227 ± 13.4 µM			Cc1cccnc1-n1cccc1C(=O)c1ccn(C)c1 [5br]		>1.66	> 377		
> 100 µg/mL	> 100 µg/mL			Cc1cccnc1-n1cccc1C(=O)c1ccoc1 [5bs]			> 396		
